Reference: patent US8093297B2 (Mutual Pharmaceutical Company, Inc., priority 2009, dated 2012)
Read-outs that look alike come from different tables or passages of the source.

Assays:
[1] = Pharmacokinetic study in healthy adults of single vs. multiple oral doses of colchicine tablets (Example 1); conditions: for metabolite plasma concentration: after oral colchicine 0.6 mg single and multiple doses, LOQ 0.2 ng/mL, 13 subjects
Protocol: Subjects received a light breakfast served 60 minutes following dose administration in the morning and the evening dose was administered 90 minutes after an evening meal on Days 15 through 24 only. […] Study periods were separated by a 14-day washout. Following the single dose and the last dose of the multiple dose regimen (beginning on the mornings of Day 1 and Day 25, respectively), blood samples were collected (6 mL each) from each subject within 1 hour prior to dosing and after dose administration at study hours 0.5, 1, 1.5, 2, 3, 4, 6, 8, 10, 12, and 24 (while confined) and 36, 48, 72, and 96 (on an outpatient basis).
In tables, the parameter CL/F denotes the apparent total body clearance after administration, calculated as Total Dose/Total AUC0-tau; and Vd/F denotes the apparent total volume of distribution after administration, calculated as Total Dose/(Total AUC∞×Kel).
These include plasma concentration (C), as well as Cmax, Cn, C24, Tmax, and AUC. “Cmax” is the measured plasma concentration of the active agent at the point of maximum, or peak, concentration. “Cmin” is the measured plasma concentration of the active agent at the point of minimum concentration. “Cn” is the measured plasma concentration of the active agent at about n hours after administration. […] The term “Tmax” refers to the time from drug administration until Cmax is reached. “AUC” is the area under the curve of a graph of the measured plasma concentration of an active agent vs. time, measured from one time point to another time point. […] Time t can be the last time point with measurable plasma concentration for an individual formulation. The AUC0-∞, AUC∞ or AUC0-inf is the calculated area under the curve of plasma concentration versus time from time 0 to time infinity.

[2] = for AUC0-t, geometric mean / AUC∞, geometric mean / Cmax, geometric mean: single 0.6 mg dose alone or with steady-state ritonavir 100 mg b.i.d., ln-transformed data
Protocol: An open-label, non-randomized, single-center, one-sequence, two-period drug interaction study was conducted in healthy male and female volunteers; there will be a 14-day washout between the two periods. Twenty-four (24) non-smoking, non-obese adult volunteers were enrolled. All subjects were dosed and studied as a single cohort, with each subject receiving the same treatment in a non-randomized fashion.
On the evening of Day 18, study participants remained at the clinic for their final study confinement period.
(§1) Pharmacokinetic parameters referred to herein describe the in vivo characteristics of drug (or a metabolite or a surrogate marker for the drug) over time. These include plasma concentration (C), as well as Cmax, Cn, C24, Tmax, and AUC. “Cmax” is the measured plasma concentration of the active agent at the point of maximum, or peak, concentration. “Cmin” is the measured plasma concentration of the active agent at the point of minimum concentration. “Cn” is the measured plasma concentration of the active agent at about n hours after administration. […] The term “Tmax” refers to the time from drug administration until Cmax is reached. “AUC” is the area under the curve of a graph of the measured plasma concentration of an active agent vs. time, measured from one time point to another time point. […] Time t can be the last time point with measurable plasma concentration for an individual formulation. The AUC0-∞, AUC∞ or AUC0-inf is the calculated area under the curve of plasma concentration versus time from time 0 to time infinity.

[3] = Clinical drug-drug interaction study of colchicine and verapamil (Example 8); conditions: for AUC0-inf: both, human, in vivo, 0.6 mg
Protocol: (§2) This study was an open-label, non-randomized, single-center, one-sequence, two-period drug interaction study conducted in healthy male and female volunteers. Twenty-four (24) non-smoking, non-obese adult volunteers were enrolled. All subjects were dosed and studied as a single cohort, with each subject receiving the same treatment in a non-randomized fashion.
as §1

[4] = colchicine given concomitantly with the named drug; cited from earlier work
[5] = not given; remark: listed apart in the source
[6] = colchicine in plasma; single 0.6 mg dose alone (Day 1) or with steady-state diltiazem (Day 21); N=20; arithmetic mean
Protocol: as §2, §1

[7] = colchicine in plasma, N=23
[8] = colchicine in plasma, single 0.6 mg dose alone (Day 1) or with cyclosporine 100 mg (Day 15), N=23
Protocol: as §2, §1

clinical [9] = conditions: both, human, plasma, oral, 0.6 mg, colchicine in plasma
Protocol: This study was an open-label, non-randomized, single-center, one-sequence, two-period drug interaction study conducted in healthy male and female volunteers; there was a 14-day washout between the two periods. Twenty-four (24) non-smoking, non-obese adult volunteers were enrolled. All subjects were dosed and studied as a single cohort, with each subject receiving the same treatment in a non-randomized fashion.
Azithromycin was administered for 5 consecutive days (2×250 mg once daily [Day 15 only] and then 1×250 mg once daily Days 16-19) beginning on the morning of Day 15, with the last 250 mg azithromycin dose administered on the morning on Day 19.
Azithromycin plasma concentrations were not measured.
as §1

FMF patients = conditions: reported; cited from earlier work
clinical [10] = conditions: both, human, plasma, oral, 0.6 mg, geometric mean, colchicine in plasma, single 0.6 mg dose alone or with steady-state ketoconazole 200 mg b.i.d., ln-transformed data
Description: This study was an open-label, non-randomized, single-center, one-sequence, two-period drug interaction study conducted in healthy male and female volunteers; there will be a 14-day washout between the two periods. Twenty-four (24) non-smoking, non-obese adult volunteers were enrolled.
as §1

clinical [11] = conditions: both, human, plasma, 0.6 mg, colchicine in plasma, single 0.6 mg dose alone (Day 1) or with steady-state diltiazem (Day 21), N=20, arithmetic mean
Protocol: as §2, §1

clinical [12] = conditions: both, human, plasma, 0.6 mg
Protocol: as §2, §1

[13] = colchicine in plasma, single 0.6 mg dose alone (Day 1) or with steady-state ritonavir (Day 19), N=18, arithmetic mean
[14] = colchicine in plasma, listed as Colchicine + Ritonovir
[15] = colchicine in plasma, single 0.6 mg dose alone (Day 1) or with steady-state azithromycin (Day 19), N=21, arithmetic mean
[16] = colchicine in plasma, single 0.6 mg dose alone or with steady-state azithromycin
[17] = colchicine, single 0.6 mg dose alone or with steady-state azithromycin, N=21, arithmetic mean
[18] = colchicine in plasma, single 0.6 mg dose alone (Day 1) or with steady-state verapamil (Day 19), N=24, arithmetic mean
[19] = colchicine in plasma, single 0.6 mg dose alone or with steady-state verapamil HCl ER 240 mg once daily
[20] = colchicine in plasma, single 0.6 mg dose alone or with steady-state ketoconazole 200 mg b.i.d., ln-transformed data
[21] = single 0.6 mg dose alone (Day 1) or with steady-state clarithromycin (Day 29), arithmetic mean
[22] = single oral 0.6 mg colchicine following ketoconazole 200 mg b.i.d. x 5 days vs alone
[23] = multiple (b.i.d. x 10 days) oral doses colchicine 0.6 mg, after last dose Day 25, healthy adults N=13
[24] = single oral dose colchicine 0.6 mg, fasted, healthy adults N=13
[25] = co-administration with ritonavir 100 mg b.i.d. x 5 days
[26] = following ritonavir 100 mg b.i.d. x 5 days vs colchicine alone
[27] = co-administration with azithromycin
[28] = following azithromycin 500 mg then 250 mg x 4 days vs colchicine alone

Structure (SMILES): COc1c(O)cc2c(c1OC)-c1ccc(OC)c(=O)cc1[C@@H](NC(C)=O)CC2 [3-DMC, 3-O-demethylcolchciine]
- metabolite plasma concentration [1]: only one sample from 1 subject (of 13 subjects) had a detectable

Structure (SMILES): COc1cc2c(c(OC)c1OC)-c1ccc(OC)c(=O)cc1[C@@H](NC(C)=O)CC2 [Colchicine + Ritonavir]
- AUC0-t [2, 13]: 29.05 ng·h/mL
- AUC0-∞ [2, 13]: 35.28 ng·h/mL
- Cmax [2, 13]: 4.99 ng/mL
- AUC0-t, geometric mean [2, 14]: 27.79308 ng·h/mL
- AUC∞, geometric mean [2, 14]: 33.77136 ng·h/mL
- Cmax, geometric mean [2, 14]: 4.83539 ng/mL

Structure (SMILES): COc1cc2c(c(OC)c1OC)-c1ccc(OC)c(=O)cc1[C@@H](NC(C)=O)CC2 [Colchicine + Azithromycin]
- AUC0-t [15]: 17.16 ng·h/mL
- Cmax [15]: 3.05 ng/mL
- AUC0-t, geometric mean [16]: 16.09052 ng·h/mL
- AUC∞, geometric mean [16]: 18.31283 ng·h/mL
- Cmax, geometric mean [16]: 2856.22 pg/mL
- CL/F [17]: 35.01 L/h
- t1/2 [17]: 6.71 h

Structure (SMILES): COc1cc2c(c(OC)c1OC)-c1ccc(OC)c(=O)cc1[C@@H](NC(C)=O)CC2 [Colchicine + Verapamil]
- AUC0-t [3, 18]: 24.64 ng·h/mL
- AUC0-∞ [3, 18]: 30.59 ng·h/mL
- Cmax [3, 18]: 3.85 ng/mL
- AUC0-t, geometric mean [3, 19]: 23.88921 ng·h/mL
- AUC∞, geometric mean [3, 19]: 29.55675 ng·h/mL
- Cmax, geometric mean [3, 19]: 3.63968 ng/mL
- Tmax ([3]; colchicine in plasma, single 0.6 mg dose alone or with steady-state verapamil, N=24, head says median for Tmax): 1.15 h

Structure (SMILES): CC[C@H]1OC(=O)[C@H](C)[C@@H](O[C@H]2C[C@@](C)(OC)[C@@H](O)[C@H](C)O2)[C@H](C)[C@@H](O[C@@H]2O[C@H](C)C[C@H](N(C)C)[C@H]2O)[C@](C)(OC)C[C@@H](C)C(=O)[C@H](C)[C@@H](O)[C@]1(C)O [Clarithromycin]
- Noted or Anticipated Outcome: toxicity reported with concomitant colchicine [4]: fatal colchicine toxicity

Structure (SMILES): COc1cc2c(c(OC)c1OC)-c1ccc(OC)c(=O)cc1[C@@H](NC(C)=O)CC2 [Colchicine + Ketoconazole]
- AUC0-t, geometric mean [5, 20]: 33.2238 ng·h/mL
- AUC∞, geometric mean [5, 20]: 42.143 ng·h/mL
- Cmax, geometric mean [5, 20]: 5.0785 ng/mL
- Tmax (hr)* ([5]; colchicine in plasma, single 0.6 mg dose alone or with steady-state ketoconazole, N=23, *Median (Range) for Tmax): 1.02 h

Structure (SMILES): COc1cc2c(c(OC)c1OC)-c1ccc(OC)c(=O)cc1[C@@H](NC(C)=O)CC2 [Colchicine + Diltiazem]
- AUC0-t [6]: 17.73 ng·h/mL
- AUC0-∞ [6]: 22.49 ng·h/mL
- Cmax [6]: 2.80 ng/mL

Structure (SMILES): COc1cc2c(c(OC)c1O)-c1ccc(OC)c(=O)cc1[C@@H](NC(C)=O)CC2 [2-DMC, 2-O-demethylcolchicine]
- metabolite plasma concentration [1]: < 0.2 ng/mL

Structure (SMILES): COc1cc2c(c(OC)c1OC)-c1ccc(OC)c(=O)cc1[C@@H](NC(C)=O)CC2 [Colchicine + Clarithromycin]
- AUC0-inf [7, 21]: 52.62 ng·h/mL
- AUC0-t [7, 21]: 41.95 ng·h/mL
- Cmax [7, 21]: 8.44 ng/mL
- Tmax (hr)* ([7]; single 0.6 mg dose alone or with steady-state clarithromycin, range printed beside): 1.00 h

Structure (SMILES): COc1cc2c(c(OC)c1OC)-c1ccc(OC)c(=O)cc1[C@@H](NC(C)=O)CC2 [Colchicine + Cyclosporine]
- Tmax (hr)* [8]: 1.13 h
- AUC0-inf ([8]; arithmetic mean): 47.31 ng·h/mL
- AUC0-t ([8]; arithmetic mean): 39.83 ng·h/mL
- Cmax ([8]; arithmetic mean): 8.82 ng/mL

Structure (SMILES): COc1cc2c(c(OC)c1OC)-c1ccc(OC)c(=O)cc1[C@@H](NC(C)=O)CC2 [Colchicine, (−)-N-[(7S,12aS)-1,2,3,10-tetramethoxy-9-oxo-5,6,7,9-tetrahydrobenzo[a]heptalen-7-yl]-acetamide]
- decrease in total apparent oral clearance ([5]; co-administration with ketoconazole 200 mg b.i.d. x 5 days): 70%
- AUC∞, geometric mean [5, 20]: 13.18592 ng·h/mL
- increase in AUC0-t of colchicine [5, 22]: 190%
- increase in Cmax of colchicine [5, 22]: 90%
- Cmax (clinical [9]; single 0.6 mg dose alone (Day 1) or with steady-state azithromycin (Day 19), N=21, arithmetic mean): 2.74 ng/mL
- Cmax (clinical [9]; geometric mean, single 0.6 mg dose alone or with steady-state azithromycin): 2.54 ng/mL
- attainment of steady state (trough plasma concentrations) ([1]; 0.6 mg b.i.d.): by approximately the eighth day of dosing for most subjects
- elimination half-life ([1]; calculated following a single oral dose, stated not an accurate estimate): approximately 5 hours
- Cave, MEAN [1, 23]: 1697.22 pg/mL
- Cave, MEDIAN [1, 23]: 1701.92 pg/mL
- Cmin, MEDIAN [1, 23]: 903.50 pg/mL
- Ke1, MEAN [1, 23]: 0.0267 h⁻¹
- Ke1, MEDIAN [1, 23]: 0.0261 h⁻¹
- quantifiability of plasma concentrations after a single dose ([1]; single 0.6 mg oral dose, healthy adults): no longer quantifiable 24 hours post-dose in all but 1 subject
- secondary colchicine peak ([1]; single dose or multiple dosing, individual subject data): no subject experienced a secondary colchicine peak
- Ke1, MEAN [1, 24]: 0.1829 h⁻¹
- Ke1, MEDIAN [1, 24]: 0.1992 h⁻¹
- Cmin prior to the morning dose higher than Cmin prior to the evening dose ([1]; steady state, Day 23 and Day 24): approximately 12%
- FMF patients who do not show a beneficial response to colchicine administration (FMF patients): 5-10%
- decrease in total apparent oral clearance [2, 25]: 70%
- effect on Tmax [2, 25]: not affected
- AUC0-∞ [2, 13]: 10.41 ng·h/mL
- AUC0-t, geometric mean ([2]; colchicine in plasma): 7.64271 ng·h/mL
- AUC∞, geometric mean ([2]; colchicine in plasma): 9.55174 ng·h/mL
- Cmax, geometric mean ([2]; colchicine in plasma): 1.79837 ng/mL
- increase in exposure to a single 0.6-mg colchicine [2, 26]: approximately 245%
- increase in mean peak colchicine concentration [2, 26]: approximately 170%
- Cmax (clinical [10]): 2.6 ng/mL
- AUC0-inf ([3]; AUC0-∞, colchicine in plasma, single 0.6 mg dose alone (Day 1) or with steady-state verapamil (Day 19), N=24, arithmetic mean): 15.4 ng·h/mL
- AUC0-inf ([3]; AUC∞, geometric mean, colchicine in plasma, single 0.6 mg dose alone or with steady-state verapamil HCl ER 240 mg once daily): 14.4 ng·h/mL
- Cmax [3, 18]: 2.97 ng/mL
- AUC0-t, geometric mean [3, 19]: 12.2564 ng·h/mL
- CL/F ([3]; colchicine, single 0.6 mg dose alone or with steady-state verapamil, N=24, arithmetic mean): 43.93 L/h
- Cmax [6]: 2.17 ng/mL
- AUC0-t (clinical [11]): 10 ng·h/mL
- decrease in total apparent oral clearance [27]: approximately 30%
- effect on Tmax [27]: not affected
- AUC0-t [15]: 11.98 ng·h/mL
- AUC0-∞ [15]: 14.13 ng·h/mL
- AUC∞, geometric mean [16]: 12.9318 ng·h/mL
- CL/F [17]: 50.24 L/h
- increase in exposure to colchicine (concomitant administration of azithromycin (description)): approximately 46%
- increase in exposure to colchicine, AUC0-t [28]: approximately 46%
- increase in exposure to colchicine, AUC0-∞ [28]: approximately 40%
- increase in mean peak colchicine concentration [28]: approximately 12%
- AUC0-inf (clinical [12]): 15 ng·h/mL
- AUC0-t (clinical [12]): 12.6 ng·h/mL
- Cmax (clinical [12]): 2.72 ng/mL
- Tmax (clinical [12]): 1.15 h
- AUC0-inf [7, 21]: 15.53 ng·h/mL
- AUC0-t [7, 21]: 12.37 ng·h/mL
